The series deals with C57BL/6 mice. The series is described as follows: Naked GW2580 crystals co-injected SC with polystyrene or glass spheres, 2 weeks. The series is classed as in vivo. Here is the method: Naked crystals of GW2580 or saline-only (no drug control) were delivered intraperitoneally along with 500 μm alginate spheres for 2 weeks to C57BL/6 mice. […] Brightfield and fluorescence imaging was used to emphasize the respective presence or lack of fibrotic overgrowth on retrieved alginate spheres from either saline (control) or crystalline GW2580 treatment groups (FIG. 17C). […] GW2580 crystal testing (at doses of 0.5 and 5 mg/SC site) was also extended into the SC implant space with other immunogenic materials, ceramic glass (GL) and polymer polystyrene (PS). […] Retrieved materials where fixed overnight using 4% paraformaldehyde at 4° C. After fixation, alginate sphere or retrieved tissue samples were washed using 70% alcohol. The materials where then mixed with 4 degrees calcium-cooled Histogel (VWR, CA #60872-486). After the molds hardened, the blocks were processed for paraffin embedding, sectioning and staining according to standard histological methods. Single-cell suspensions of freshly excised tissues were prepared using a gentle MACS Dissociator (Miltenyi Biotec, Auburn, Calif.) according to the manufacturer's protocol. Single-cell suspensions were prepared in a passive PEB dissociation buffer (1×PBS, pH 7.2, 0.5% BSA, and 2 mM EDTA) and suspensions were passed through 70 μm filters (Cat. #22363548, Fisher Scientific, Pittsburgh, Pa.). This process removed the majority of cells adhered to the surface (>90%). All tissue and material sample-derived, single-cell populations were then subjected to red blood cell lysis with 5 ml of 1×RBC lysis buffer (Cat. #00-4333, eBioscience, San Diego, Calif., USA) for 5 min at 4° C. The reaction was terminated by the addition of 20 ml of sterile 1×PBS. The cells remaining were centrifuged at 300-400 g at 4° C. and resuspended in a minimal volume (˜50 μl) of eBioscience Staining Buffer (cat. #00-4222) for antibody incubation. All samples were then co-stained in the dark for 25 min at 4° C. with two of the fluorescently tagged monoclonal antibodies specific for the cell markers CD68 (1 μl (0.5 μg) per sample; CD68-Alexa647, Clone FA-11, Cat. #11-5931, BioLegend), Ly-6G (Gr-1) (1 μl (0.5 μg) per sample; Ly-6G-Alexa-647, Clone RB6-8C5, Cat. #108418, BioLegend), CD11b (1 μl (0.2 μg) per sample; or CD11b-Alexa-488, Clone M1/70, Cat. #101217, BioLegend). For alpha smooth muscle actin (fibrosis) analysis, additional cell aliquots were also fixed in 1% paraformaldehyde and permeabilized with 0.1% triton X-100 before being stained with Cy3-conjugated anti-mouse αSM actin antibody (1:100) (Sigma Aldrich, St. Louis, Mo.). Two ml of eBioscience Flow Cytometry Staining Buffer (cat. #00-4222, eBioscience) was then added, and the samples were centrifuged at 400-500 g for 5 min at 4° C. […]

`COc1ccc(COc2ccc(Cc3cnc(N)nc3N)cc2OC)cc1` [GW2580, 5-[[3-Methoxy-4-[(4-methoxyphenyl)methoxy]phenyl]methyl]-2,4-pyrimidinediamine]: under “SC-implanted PS and GL 0.5 mm spheres, 2 weeks”, the “responding macrophages (FACS)” value is given as “significant reductions in responding macrophages”. Moreover, the “drug extracted from nearby tissue” value (all implant groups, 2 weeks) is recorded as “large quantities of remaining drug”. Also, where the note is “ceramic glass (GL) spheres, SC, no histology”, the anti-fibrotic effect entry is listed as “anti-fibrotic effects were also observed”. Also, the “anti-fibrotic effect (H&E and Masson's Trichrome)” value (polystyrene (PS) spheres, SC, 0.5 and 5 mg/SC site, 2 weeks) is listed as “significant anti-fibrotic effects”.

The values above are taken from patent US10851069B2, “Compositions of crystallized hydrophobic compounds and methods of making and using same” (Massachusetts Institute of Technology, priority 2016, dated 2020).
